According to EP2196204A1 (priority 2007, dated 2009):

Tested on: DU-145
Assay type: cell-based, human

**Q.** For CC(=O)O[C@H]1C(=O)[C@@]2(C)[C@H]([C@H](OC(=O)c3ccccc3)[C@]3(O)C[C@H](OC(=O)[C@H](O)[C@@H](NC(=O)c4ccccc4)c4ccccc4)C(C)=C1C3(C)C)[C@]1(OC(C)=O)CO[C@@H]1C[C@@H]2O [Taxol], which Cell survival rate is on record?
**A.** Its Cell survival rate is 63.88%.
